Assay results taken from PubChem BioAssay (NCI).
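Each compound was tested at five concentrations against cells in 96-well plates for 48 hours. Here, GI50 denotes the concentration required for 50% inhibition of growth. TGI is the concentration that stops growth completely.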

Columns and labels:
Test in all cases: DTP human tumour cell line panel, 48 h
HT29 colon = tested on: HT29 colon
NCI-H522 lung = tested on: NCI-H522 lung
SK-MEL-2 melanoma = tested on: SK-MEL-2 melanoma
SK-OV-3 ovarian = tested on: SK-OV-3 ovarian
CCRF-CEM leukemia = tested on: CCRF-CEM leukemia
SNB-75 CNS = tested on: SNB-75 CNS
MALME-3M melanoma = tested on: MALME-3M melanoma
IGROV1 ovarian = tested on: IGROV1 ovarian
NCI-H460 lung = tested on: NCI-H460 lung
SNB-19 CNS = tested on: SNB-19 CNS

Row | SMILES | TGI (HT29 colon) | TGI (NCI-H522 lung) | TGI (SK-MEL-2 melanoma) | TGI (SK-OV-3 ovarian) | TGI (CCRF-CEM leukemia) | TGI (SNB-75 CNS) | TGI (MALME-3M melanoma) | TGI (IGROV1 ovarian) | TGI (NCI-H460 lung) | TGI (SNB-19 CNS) | GI50 (HT29 colon) | GI50 (NCI-H522 lung) | GI50 (SK-MEL-2 melanoma) | GI50 (SK-OV-3 ovarian) | GI50 (CCRF-CEM leukemia) | GI50 (SNB-75 CNS) | GI50 (MALME-3M melanoma) | GI50 (IGROV1 ovarian) | GI50 (NCI-H460 lung) | GI50 (SNB-19 CNS)
1 | C[C@H](C(O)CC(=O)C(C)(C)O)[C@H]1CC[C@@]2(C)[C@@H]3CC[C@H]4C(C)(C)[C@@H](OC5OC(COC6OC(CO)C(O)C(O)C6O)C(O)C(O)C5O)CC[C@]4(C)C3=CC[C@]12C (some centres undefined) | > 100 µM | > 100 µM | > 100 µM | > 100 µM | > 100 µM | > 100 µM | > 100 µM | > 100 µM | > 100 µM | > 100 µM |  |  |  |  |  |  |  |  |  | 
2 | CC1(C)Oc2ccccc2[N+]([O-])=C1c1ccccc1 | > 100 µM | > 100 µM |  | > 100 µM | > 100 µM | > 100 µM | > 100 µM | > 100 µM | > 100 µM | > 100 µM |  |  |  |  |  |  |  |  |  | 
3 | Cc1nc(-n2nc(-c3ccccc3)cc2-c2ccccc2)sc1C(=O)/C=C/c1ccc(Cl)cc1 | 29.6 µM | 25.9 µM | 35.7 µM | > 100 µM | 78.1 µM | > 100 µM | 52.5 µM | > 100 µM | 76.5 µM |  |  |  |  |  |  |  |  |  |  | 
4 | COc1ccccc1N1CCN(CCCOc2ccc(C(=O)/C=C3/C(=O)Nc4ccccc43)cc2)CC1 | 12.2 µM | 34.4 µM | > 80.4 µM | > 100 µM | > 43.2 µM | 43.9 µM | 22.9 µM | 37.6 µM | 65.5 µM | > 100 µM | 3.13 µM | 11.9 µM | 5.54 µM | 28.2 µM | 3.07 µM | 14.9 µM | 0.589 µM | 12.1 µM | 13.5 µM | 40.6 µM
5 | C/C(=N\NS(=O)(=O)c1c(C)cc(C)cc1C)c1ccc[n+]([O-])n1 | 36 µM | 21 µM |  | > 100 µM | 18.2 µM | 41.2 µM |  | 99.2 µM | > 100 µM | > 100 µM |  |  |  |  |  |  |  |  |  | 
6 | CCCc1n(Cc2ccc3ccccc3n2)cc[n+]1Cc1ccc2ccccc2c1 | 2.07 µM | 1.13 µM | 2.85 µM | 4.02 µM | 6.1 µM | 3.47 µM | 2.75 µM | 3.48 µM | 10.6 µM | 11.4 µM | 0.409 µM | 0.249 µM | 1.06 µM | 1.26 µM | 0.688 µM | 0.41 µM | 0.526 µM | 0.807 µM | 0.658 µM | 0.551 µM
7 | Cc1ccc(-n2c3c(c4c(CN)c(O)ccc42)CCc2ccccc2C3=O)cc1 | > 100 µM | 23.6 µM | 26.9 µM | 34.4 µM | 8.44 µM | 39.3 µM | 17.9 µM | 22.8 µM | 28.4 µM | 38.4 µM | 30.3 µM | 9.3 µM | 12 µM | 18.1 µM | 2.66 µM | 18.9 µM | 4.58 µM | 8.18 µM | 7.33 µM | 19.9 µM
8 | C[C@@]1(O)CCC[C@H]1n1c(=O)c(C(F)F)cc2cnc(NC3CCN(S(C)(=O)=O)CC3)nc21 | > 100 µM | 15.3 µM | 6.34 µM |  | > 100 µM | 2.38 µM | 5.37 µM | 43.7 µM | 11.9 µM | 16.8 µM | 1.27 µM | 2.66 µM | 2.28 µM |  | 1.5 µM | 0.223 µM | 1.29 µM | 1.38 µM | 0.109 µM | 1.34 µM
